# According to PubChem BioAssay AID2243 (The Scripps Research Institute Molecular Screening Center, 2010):
# Activity calls are given as the source filed them. How the calls were made is not given here.
# Test system: cytotoxicity counterscreen, ATP luminescence viability
# Test: cytotoxicity of test compounds, late-stage follow-up, cytotoxicity control for RBBP9 inhibitor project, cell-based, luminescence (AID 2243)
compound,measurement,value
C/C(=N\OC(=O)C1CCCCC1)c1nccs1,CC50,> 100 µM (inactive)
